Assay results from patent publication US12077503B2, “Substituted cyclic amides and their use as herbicides” (FMC CORPORATION, priority 2015, dated 2024).

Assays:
Type in all cases: in vivo
[1] = system: barnyardgrass (Echinochloa crus-galli); assay: Test A preemergence; conditions: Echinochloa crus-galli, pre-emergence, 240 h, preemergence, 0 to 100 scale where 0 is no effect and 100 is complete control, read-out: Barnyardgrass plant response rating
Procedure, shortened: (§1)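 In a loam soil and sand blend, planted seeds got a preemergence directed soil spray, and young plants at the one- to two-leaf stage, 2–10 cm high, got a postemergence application; ~10 d greenhouse hold; injury rated visually, 0 = none, 100 = complete control.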

[2] = system: ragweed (common ragweed, Ambrosia elatior); assay: Test A preemergence; conditions: Ambrosia artemisiifolia, pre-emergence, 240 h, preemergence, 0 to 100 scale where 0 is no effect and 100 is complete control, read-out: Ragweed plant response rating
Procedure, shortened: as §1

Kochia (Kochia scoparia) [3] = assay: Test A preemergence; conditions: Bassia scoparia, pre-emergence, 240 h, preemergence, 0 to 100 scale where 0 is no effect and 100 is complete control, read-out: Kochia plant response rating
Procedure, shortened: as §1

[4] = system: ryegrass, Italian (Italian ryegrass, Lolium multiflorum); assay: Test A preemergence; conditions: Lolium multiflorum, pre-emergence, 240 h, preemergence, 0 to 100 scale where 0 is no effect and 100 is complete control, read-out: Ryegrass, Italian plant response rating
Procedure, shortened: as §1

[5] = system: pigweed (Amaranthus retroflexus); assay: Test A preemergence; conditions: Amaranthus retroflexus, pre-emergence, 240 h, preemergence, 0 to 100 scale where 0 is no effect and 100 is complete control, read-out: Pigweed plant response rating
[6] = system: giant foxtail (Setaria faberii); assay: Test A postemergence; conditions: Setaria faberi, post-emergence, 240 h, postemergence, read-out: Foxtail, Giant plant response rating
Procedure, shortened: as §1

[7] = system: barnyardgrass (Echinochloa crus-galli); assay: Test A postemergence; conditions: Echinochloa crus-galli, post-emergence, 240 h, postemergence, read-out: Barnyardgrass plant response rating
Procedure, shortened: as §1

corn (Zea mays) = assay: Test A postemergence; conditions: Zea mays, post-emergence, 240 h, postemergence, read-out: Corn plant response rating
Procedure, shortened: as §1

[8] = system: ragweed (common ragweed, Ambrosia elatior); assay: Test A postemergence; conditions: Ambrosia artemisiifolia, post-emergence, 240 h, postemergence, read-out: Ragweed plant response rating
Procedure, shortened: as §1

[9] = system: Galium (catchweed bedstraw, Galium aparine); assay: Test A postemergence; conditions: Galium, post-emergence, 240 h, postemergence, read-out: Galium plant response rating
Procedure, shortened: as §1

Kochia (Kochia scoparia) [10] = assay: Test A postemergence; conditions: Bassia scoparia, post-emergence, 240 h, postemergence, read-out: Kochia plant response rating
Procedure, shortened: as §1

[11] = system: ryegrass, Italian (Italian ryegrass, Lolium multiflorum); assay: Test A postemergence; conditions: Lolium multiflorum, post-emergence, 240 h, postemergence, read-out: Ryegrass, Italian plant response rating
Procedure, shortened: as §1

[12] = system: wheat (Triticum aestivum); assay: Test A postemergence; conditions: Triticum aestivum, post-emergence, 240 h, postemergence, read-out: Wheat plant response rating
Procedure, shortened: as §1

[13] = system: blackgrass (Alopecurus myosuroides); assay: Test A postemergence; conditions: Alopecurus myosuroides, post-emergence, 240 h, postemergence, read-out: Blackgrass plant response rating
Procedure, shortened: as §1

[14] = system: pigweed (Amaranthus retroflexus); assay: Test A postemergence; conditions: Amaranthus retroflexus, post-emergence, 240 h, postemergence, read-out: Pigweed plant response rating
Procedure, shortened: as §1

[15] = 125 g ai/ha, visual injury on 0 to 100 scale (0 no effect, 100 complete control), approx. 10 d
[16] = 500 g ai/ha, 0 to 100 scale, 0 is no effect, 100 is complete control

Question: For `O=C1NC[C@H](c2ccc(F)c(OC(F)(F)C(F)(F)Br)c2)[C@H]1C(=O)Nc1ccccc1F` [Compound 1134], which pest or weed control at 125 g/ha ([1]; 125 g ai/ha, approx. 10 d) is on record?
Answer: The pest or weed control at 125 g/ha was 30%.

Question: What about the pest or weed control at 500 g/ha ([1]; 500 g ai/ha) of the same molecule?
Answer: Its pest or weed control at 500 g/ha is 80%.

Question: And the pest or weed control at 125 g/ha ([2]; 125 g ai/ha, approx. 10 d)?
Answer: Its pest or weed control at 125 g/ha is 0%.

Question: And the pest or weed control at 500 g/ha ([2]; 500 g ai/ha)?
Answer: Its pest or weed control at 500 g/ha is 70%.

Question: And the pest or weed control at 125 g/ha (Kochia (Kochia scoparia) [3]; 125 g ai/ha, approx. 10 d)?
Answer: Its pest or weed control at 125 g/ha is 50%.

Question: What about the pest or weed control at 500 g/ha (Kochia (Kochia scoparia) [3]; 500 g ai/ha) of the same molecule?
Answer: The pest or weed control at 500 g/ha was 60%.

Question: What about the pest or weed control at 125 g/ha ([4]; 125 g ai/ha, approx. 10 d) of the same molecule?
Answer: Its pest or weed control at 125 g/ha is 0%.

Question: And the pest or weed control at 500 g/ha ([4]; 500 g ai/ha)?
Answer: Its pest or weed control at 500 g/ha is 40%.

Question: And the pest or weed control at 125 g/ha ([5]; 125 g ai/ha, approx. 10 d)?
Answer: Its pest or weed control at 125 g/ha is 0%.

Question: And the pest or weed control at 500 g/ha ([5]; 500 g ai/ha)?
Answer: The pest or weed control at 500 g/ha was 30%.

Question: What about the pest or weed control at 125 g/ha [6, 15] of the same molecule?
Answer: The pest or weed control at 125 g/ha was 30%.

Question: And the pest or weed control at 500 g/ha [6, 16]?
Answer: The pest or weed control at 500 g/ha was 80%.

Question: And the pest or weed control at 125 g/ha [7, 15]?
Answer: The pest or weed control at 125 g/ha was 60%.

Question: And the pest or weed control at 500 g/ha [7, 16]?
Answer: Its pest or weed control at 500 g/ha is 80%.

Question: What about the plant injury at 125 g/ha (corn (Zea mays); [15]) of the same molecule?
Answer: Its plant injury at 125 g/ha is 20%.

Question: And the plant injury at 500 g/ha (corn (Zea mays); [16])?
Answer: Its plant injury at 500 g/ha is 20%.

Question: And the pest or weed control at 125 g/ha [8, 15]?
Answer: Its pest or weed control at 125 g/ha is 0%.

Question: And the pest or weed control at 500 g/ha [8, 16]?
Answer: The pest or weed control at 500 g/ha was 30%.

Question: What about the pest or weed control at 125 g/ha [9, 15] of the same molecule?
Answer: The pest or weed control at 125 g/ha was 20%.

Question: And the pest or weed control at 500 g/ha [9, 16]?
Answer: The pest or weed control at 500 g/ha was 70%.

Question: What about the pest or weed control at 125 g/ha (Kochia (Kochia scoparia) [10]; [15]) of the same molecule?
Answer: The pest or weed control at 125 g/ha was 0%.

Question: And the pest or weed control at 500 g/ha (Kochia (Kochia scoparia) [10]; [16])?
Answer: The pest or weed control at 500 g/ha was 30%.

Question: And the pest or weed control at 125 g/ha [11, 15]?
Answer: Its pest or weed control at 125 g/ha is 20%.

Question: And the pest or weed control at 500 g/ha [11, 16]?
Answer: Its pest or weed control at 500 g/ha is 20%.

Question: And the plant injury at 125 g/ha [12, 15]?
Answer: The plant injury at 125 g/ha was 0%.

Question: What about the plant injury at 500 g/ha [12, 16] of the same molecule?
Answer: Its plant injury at 500 g/ha is 20%.

Question: And the pest or weed control at 125 g/ha [13, 15]?
Answer: Its pest or weed control at 125 g/ha is 20%.

Question: What about the pest or weed control at 500 g/ha [13, 16] of the same molecule?
Answer: Its pest or weed control at 500 g/ha is 50%.

Question: What about the pest or weed control at 125 g/ha [14, 15] of the same molecule?
Answer: The pest or weed control at 125 g/ha was 0%.

Question: And the pest or weed control at 500 g/ha [14, 16]?
Answer: The pest or weed control at 500 g/ha was 20%.
